Key:
[1] = test system: SETVI (Setaria viridis); assay: Postemergence herbicidal evaluation; type: in vivo, (L.) Beau; conditions: for SETVI herbicidal rating: postemergence
How it was run: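 Seedlings grown about two weeks were sprayed with compound in 50/50 acetone/water containing 0.5% TWEEN 20, at about 0.0040 to 1.000 kg/ha via nozzle at 40 psi. Plants were kept under greenhouse conditions and visually rated on a 0-9 scale versus control four to five weeks after treatment; replicate tests averaged.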

[2] = test system: ORYSAT (Rice, Tebonnet); assay: Postemergence herbicidal evaluation; type: in vivo, Oryza sativa, (L.) Tebonnet; conditions: for ORYSAT herbicidal rating: postemergence
How it was run: (§1)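 Seedlings grown about two weeks in flats, sprayed, then kept under standard greenhouse care. Rated visually 4–5 weeks after treatment on a 0–9 scale (stand, vigour, malformation, size, chlorosis, overall appearance) relative to untreated control; repeat tests averaged.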

[3] = test system: TRZAWR (Wheat, Winter, cv Riband); assay: Postemergence herbicidal evaluation; type: in vivo, Triticum aestivum; conditions: for TRZAWR herbicidal rating: postemergence
How it was run: as §1

[4] = test system: ABUTH (Abutilon theophrasti); assay: Preemergence herbicidal evaluation; type: in vivo, Medic.; conditions: rated 4-5 weeks after treatment
[5] = test system: ECHCG (Echinochloa crus-galli); assay: Preemergence herbicidal evaluation; type: in vivo, (L.) Beau; conditions: rated 4-5 weeks after treatment
How it was run: (§2)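 Scores (0–9) reflect visual comparison with control plants for stand, vigor, malformation, size and chlorosis. Seeds in potting soil received a post-planting spray of compound in aqueous acetone and grew in a greenhouse until assessment 4–5 weeks later.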

[6] = test system: SETVI (Setaria viridis); assay: Preemergence herbicidal evaluation; type: in vivo, (L.) Beau; conditions: rated 4-5 weeks after treatment
How it was run: as §2

[7] = test system: MOOVA (Monochoria vaginalis); assay: Flooded paddy, preemergence weed control; type: in vivo, Presl.; conditions: rated 3-4 weeks after treatment, 0-9 rating scale
How it was run: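 Seeds or propagating organs were sown in the top 0.5 cm of silt loam soil, flooded, and the water kept 1.5 to 3 cm above the soil surface throughout. Plants were grown in the greenhouse and rated visually on a 0-9 scale against a control.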

[8] = test system: ORYSAT (Rice, Tebonnet); assay: Flooded paddy, post-transplant rice tolerance; type: in vivo, Oryza sativa, (L.) Tebonnet; conditions: flooded paddy, post-transplant rice, rated 3-4 weeks after treatment, 0-9 rating scale
How it was run: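 Scores (0-9) reflect visual injury relative to untreated plants in flooded silt loam. Each pot held two transplanted ten-day-old seedlings under 1.5 to 3 cm standing water in the greenhouse.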

Compound | Postemergence herbicidal rating, SETVI ([1]; rate 0.0320 kg/ha) | Postemergence herbicidal rating, SETVI ([1]; rate 0.0620 kg/ha) | Postemergence herbicidal rating, ORYSAT ([2]; rate 0.0320 kg/ha) | Postemergence herbicidal rating, ORYSAT ([2]; rate 0.0620 kg/ha) | Postemergence herbicidal rating, TRZAWR ([3]; rate 0.0320 kg/ha) | Postemergence herbicidal rating, TRZAWR ([3]; rate 0.0620 kg/ha) | herbicidal rating, MOOVA ([7]; rate 0.0080 kg/ha) | herbicidal rating, MOOVA ([7]; rate 0.0320 kg/ha) | herbicidal rating, ORYSAT (rice tolerance) ([8]; rate 0.0080 kg/ha) | herbicidal rating, ORYSAT (rice tolerance) ([8]; rate 0.0320 kg/ha) | herbicidal rating, ORYSAT (rice tolerance) ([8]; rate 0.1250 kg/ha) | Preemergence herbicidal rating ABUTH ([4]; Rate 0.0620 kg/ha) | Preemergence herbicidal rating ECHCG ([5]; Rate 0.0620 kg/ha) | Preemergence herbicidal rating SETVI ([6]; Rate 0.0620 kg/ha) | herbicidal rating, MOOVA ([7]; rate 0.1250 kg/ha) | Preemergence herbicidal rating ABUTH ([4]; Rate 0.1250 kg/ha) | Preemergence herbicidal rating ABUTH ([4]; Rate 0.2500 kg/ha) | Preemergence herbicidal rating ECHCG ([5]; Rate 0.1250 kg/ha) | Preemergence herbicidal rating ECHCG ([5]; Rate 0.2500 kg/ha) | Preemergence herbicidal rating SETVI ([6]; Rate 0.1250 kg/ha) | also measured
CC1CCOC(c2nsc3ccc(-n4c(=O)cc(C(F)(F)F)n(C)c4=O)cc23)O1 (stereo not shown) [Compound 37, 1-methyl-3-[3-(4-methyl-m-dioxan-2-yl)-1,2-benzisothiazol-5-yl]-6-(trifluoromethyl)uracil] | 9.0 | 9.0 | 4.5 | 5.0 | 5.0 | 7.0 | 3.0 | 9.0 | 5.0 | 8.5 | 9.0 | – | – | – | – | – | – | – | – | – | ABUTH preemergence herbicidal rating ([4]; Rate 0.0620 kg/ha): 9.0; ABUTH preemergence herbicidal rating ([4]; Rate 0.1250 kg/ha): 9.0; ABUTH preemergence herbicidal rating ([4]; Rate 0.2500 kg/ha): 9.0; ECHCG preemergence herbicidal rating ([5]; Rate 0.0620 kg/ha): 9.0; ECHCG preemergence herbicidal rating ([5]; Rate 0.1250 kg/ha): 9.0; ECHCG preemergence herbicidal rating ([5]; Rate 0.2500 kg/ha): 9.0; SETVI preemergence herbicidal rating ([6]; Rate 0.0620 kg/ha): 9.0; SETVI preemergence herbicidal rating ([6]; Rate 0.1250 kg/ha): 9.0; SETVI preemergence herbicidal rating ([6]; Rate 0.2500 kg/ha): 9.0
C#CCOC(=O)COc1ccsc1-c1nsc2ccc(-n3c(=O)cc(C(F)(F)F)n(C)c3=O)cc12 [Compound 39, 2-propynyl [[2-[5-[3,6-dihydro-3-methyl-2,6-dioxo-4-(trifluoromethyl)-1(2H)-pyrimidinyl]-1,2-benzisothiazol-3-yl]-3-thienyl]oxy]acetate] | 0.0 | 3.0 | 1.5 | 2.0 | 1.5 | 2.0 | – | 9.0 | – | 0.0 | 4.0 | 1.0 | 0.0 | 0.0 | 9.0 | – | – | – | – | – | ABUTH preemergence herbicidal rating ([4]; Rate 0.1250 kg/ha): 1.0; ABUTH preemergence herbicidal rating ([4]; Rate 0.2500 kg/ha): 9.0; ECHCG preemergence herbicidal rating ([5]; Rate 0.1250 kg/ha): 0.0; ECHCG preemergence herbicidal rating ([5]; Rate 0.2500 kg/ha): 0.0; SETVI preemergence herbicidal rating ([6]; Rate 0.1250 kg/ha): 1.0; SETVI preemergence herbicidal rating ([6]; Rate 0.2500 kg/ha): 6.0
Cn1c(C(F)(F)F)cc(=O)n(-c2ccc3snc(C4SCCS4)c3c2)c1=O [Compound 24, 3-[3-(1,3-dithiolan-2-yl)-1,2-benzisothiazol-5-yl]-1-methyl-6-(trifluoromethyl)uracil] | 0.0 | 3.0 | 2.0 | 2.5 | 4.0 | 4.0 | – | 5.0 | – | 0.0 | – | – | – | – | 8.0 | – | – | – | – | – | ABUTH preemergence herbicidal rating ([4]; Rate 0.0620 kg/ha): 3.5; ABUTH preemergence herbicidal rating ([4]; Rate 0.1250 kg/ha): 7.0; ABUTH preemergence herbicidal rating ([4]; Rate 0.2500 kg/ha): 9.0; ECHCG preemergence herbicidal rating ([5]; Rate 0.0620 kg/ha): 0.0; ECHCG preemergence herbicidal rating ([5]; Rate 0.1250 kg/ha): 1.5; ECHCG preemergence herbicidal rating ([5]; Rate 0.2500 kg/ha): 5.0; SETVI preemergence herbicidal rating ([6]; Rate 0.0620 kg/ha): 3.5; SETVI preemergence herbicidal rating ([6]; Rate 0.1250 kg/ha): 8.0; SETVI preemergence herbicidal rating ([6]; Rate 0.2500 kg/ha): 9.0
C[C@H]1OC(c2nsc3ccc(-n4c(=O)cc(C(F)(F)F)n(C)c4=O)cc23)O[C@@H]1C [Compound 48, 3-[3-[(4R,5R)-4,5-dimethyl-1,3-dioxolan-2-yl]-1,2-benzisothiazol-5-yl]-1-methyl-6-(trifluoromethyl)uracil] | 9.0 | 9.0 | 5.5 | 6.0 | 5.0 | 5.7 | – | 9.0 | 5.0 | 8.0 | 9.0 | 9.0 | 9.0 | 9.0 | 9.0 | 9.0 | 9.0 | 9.0 | 9.0 | 9.0 | Preemergence herbicidal rating SETVI ([6]; Rate 0.2500 kg/ha): 9.0
Cn1c(C(F)(F)F)cc(=O)n(-c2ccc3snc(C4OC(=O)C(C)(C)O4)c3c2)c1=O (stereo not shown) [Compound 71, 3-[3-(4,4-dimethyl-5-oxo-1,3-dioxolan-2-yl)-1,2-benzisothiazol-5-yl]-1-methyl-6-(trifluoromethyl)uracil] | – | – | – | – | – | – | 0.0 | 0.0 | 0.0 | 0.0 | 0.0 | 8.0 | 5.5 | 8.0 | 0.0 | 9.0 | 9.0 | 8.0 | 8.0 | 9.0 | SETVI herbicidal rating ([1]; rate 0.0320 kg/ha): 2.0; SETVI herbicidal rating ([1]; rate 0.0620 kg/ha): 7.0; ORYSAT herbicidal rating ([2]; rate 0.0320 kg/ha): 3.0; ORYSAT herbicidal rating ([2]; rate 0.0620 kg/ha): 4.5; TRZAWR herbicidal rating ([3]; rate 0.0320 kg/ha): 3.0; TRZAWR herbicidal rating ([3]; rate 0.0620 kg/ha): 3.5; Preemergence herbicidal rating SETVI ([6]; Rate 0.2500 kg/ha): 9.0
COCC1COC(c2nsc3ccc(-n4c(=O)cc(C(F)(F)F)n(C)c4=O)cc23)O1 (stereo not shown) [Compound 64, 3-[3-[4-(methoxymethyl)-1,3-dioxolan-2-yl]-1,2-benzisothiazol-5-yl]-1-methyl-6-(trifluoromethyl)uracil] | – | – | – | – | – | – | 0.0 | 9.0 | 5.5 | 8.0 | 9.0 | 9.0 | 9.0 | 9.0 | 9.0 | 9.0 | 9.0 | 9.0 | 9.0 | 9.0 | SETVI herbicidal rating ([1]; rate 0.0320 kg/ha): 6.0; SETVI herbicidal rating ([1]; rate 0.0620 kg/ha): 7.0; ORYSAT herbicidal rating ([2]; rate 0.0320 kg/ha): 5.0; ORYSAT herbicidal rating ([2]; rate 0.0620 kg/ha): 5.5; TRZAWR herbicidal rating ([3]; rate 0.0320 kg/ha): 4.0; TRZAWR herbicidal rating ([3]; rate 0.0620 kg/ha): 5.0; Preemergence herbicidal rating SETVI ([6]; Rate 0.2500 kg/ha): 9.0
Cc1cnn(-c2nsc3ccc(-n4c(=O)cc(C(F)(F)F)n(C)c4=O)cc23)c1 [Compound 59, 1-methyl-3-[3-(4-methylpyrazol-1-yl)-1,2-benzisothiazol-5-yl]-6-(trifluoromethyl)uracil] | – | – | – | – | – | – | 0.0 | 3.0 | 0.0 | 0.0 | 0.0 | 0.0 | 2.0 | 6.0 | 9.0 | 9.0 | 7.0 | 3.0 | 7.0 | 6.0 | SETVI herbicidal rating ([1]; rate 0.0320 kg/ha): 0.0; SETVI herbicidal rating ([1]; rate 0.1250 kg/ha): 3.0; ORYSAT herbicidal rating ([2]; rate 0.0320 kg/ha): 2.0; ORYSAT herbicidal rating ([2]; rate 0.0620 kg/ha): 2.5; ORYSAT herbicidal rating ([2]; rate 0.1250 kg/ha): 2.5; TRZAWR herbicidal rating ([3]; rate 0.0320 kg/ha): 3.0; TRZAWR herbicidal rating ([3]; rate 0.0620 kg/ha): 3.5; TRZAWR herbicidal rating ([3]; rate 0.1250 kg/ha): 4.0; Preemergence herbicidal rating SETVI ([6]; Rate 0.2500 kg/ha): 9.0

From US6706663B2, “Herbicidal 3-heterocyclic substituted benzisothiazole and benzisoxazole compounds” (Wyeth, priority 2000, dated 2004)
